Laboratory results: patent US20050148786A1, “Diimmonium compound and use thereof” (Nippon Kayaku Kabushiki Kaisha, priority 2003, published 2005)

Assays:
[1] = Stability test of moisture-and-heat resistance of near-IR absorption filter; type: physicochemical; details: for b* value, difference: 14-day after minus initial, 60° C. and 95% RH; for b* value, 14-day after / b* value, initial period: acrylic resin filter; for b* value, 14-day after: 14 days at 60° C. and 95% RH; for b* value, initial period: before test
Procedure: (§1) 1.2 part of each compound obtained in each Example was dissolved in 18.8 part of MEK. 80 part of a resin solution obtained by dissolving 25 part of an acrylic resin (Dianal BR-80, manufactured by Mitsubishi Rayon Co., Ltd.) in 75 part of MEK was mixed with the obtained solution to obtain a solution for coating. The solution was applied to form a film with a thickness of 2 to 4 μm on a polyester film and dried at 80° C. to obtain a near-IR absorption filter of the invention.
The obtained near-IR absorption filter was subjected to a stability test of moisture-and-heat resistance for 14 days in a constant temperature and constant humidity apparatus under 60° C. and 95% RH conditions. The filter was subjected to color measurement by a spectrophotometer before and after the test to calculate L*, a*, and b* values. If the + value of b* value is high, it means that the hue is yellowish and if b* value is close to 0, it means that the yellowish degree is low and filter is desirable and therefore, the hue evaluation and stability evaluation were done based on the b* value and its change.

[2] = maximum absorption wavelength (λmax) in dichloromethane; type: physicochemical
Excerpt: λmax: 1,102 nm (in dichloromethane);

[3] = Comparative test of molar absorption coefficient measurement; type: physicochemical; details: in dichloromethane; in M-1·cm-1
Excerpt: The compounds obtained in the above-mentioned Examples were subjected to the measurement of molar absorption coefficient (ε) in dichloromethane.

[4] = thermal decomposition point (weight decrease starting point) by TG-DTA; type: physicochemical; details: measured by TG-DTA
Procedure: the melting point: around 170° C.; and the thermal decomposition point (the weight decrease starting point): around 280° C. (measured by TG-DTA)

[5] = Stability test of heat resistance of near-IR absorption filter; type: physicochemical; details: for b* value, initial period / b* value, 14-day after: acrylic resin filter; for b* value, initial period: before test; for b* value, 14-day after / b* value, difference: oven at 80° C.; for b* value, 14-day after: head prints 14-day, text 21 days; for b* value, difference: after minus initial
Procedure: as §1
[…] After that, the filters were subjected to color measurement by a spectrophotometer to calculate L*, a*, and b* values and their stability was evaluated based on the change in b* values. If the b* is low, that is, the absorption in visible ray region is low, the near-IR absorption filter is preferable.

[6] = Stability test of light fastness of cyanine dye film; type: physicochemical
Procedure: 0.3 part of the cyanine dye (OM-57) was dissolved in 15 part of tetrafluoropropanol and 0.04 part of the Compound No. 3 was added to the obtained solution to produce a coating solution. The obtained coating solution was applied to a polycarbonate substrate by spin coating to form a dye film. The […] the conditions: light source output: 0.36 W/m^2; bath temperature: 24° C.; black panel temperature: 40° C.; humidity: 30% RH: by a Weatherometer (Ci4000, manufactured by Atlas Co.). After that, the remaining ratio of the cyanine dye was measured by a spectrophotometer.
For comparison, a dye film was formed and evaluated in the same manner, except that the compound described in Patent Document No. 3; hexafluoroantimonate of tetrakis[p-di(n-butyl)aminophenyl]phenylenediimmonium (Comparative Example 7: Compound No. 153); was used in place of the Compound No. 1.

[7] = Stability test of light fastness of diimmonium compound thin film; type: physicochemical
Procedure: 0.1 part of the Compound No. 3 was added to 10 part of tetrafluoropropanol to produce a coating solution. The obtained coating solution was applied to a polycarbonate substrate by spin coating to form a thin film of the diimmonium compound. The […] source output: 0.36 W/m^2; bath temperature: 24° C.; black panel temperature: 40° C.; humidity: 30% RH: by a Weatherometer (Ci4000, manufactured by Atlas Co.). After that, the remaining ratio of the diimmonium compound was measured by a spectrophotometer.
For comparison, a dye film was formed and evaluated in the same manner, except that the compound described in Patent Document No. 3; hexafluoroantimonate of tetrakis[p-di(n-butyl)aminophenyl]phenylenediimmonium (Comparative Example 8: Compound No. 153); was used in place of the Compound No. 3.

[8] = Comparative test of solubility measurement; details: room temperature; for solubility in MEK: methyl ethyl ketone
Procedure: The solubility was measured for the compounds obtained in the above-mentioned Examples at a room temperature in methyl ethyl ketone (MEK) and toluene.

[9] = Weatherometer 0.36 W/m^2, 24° C., 30% RH, 100-hour
[10] = Weatherometer 0.36 W/m^2, 24° C., 30% RH, 150-hour

| SMILES | b* value, difference [1] | b* value, 14-day after [1] | b* value, initial period [1] | λmax [2] | molar absorption coefficient (ε) [3] | thermal decomposition point (the weight decrease starting point) [4] | b* value, initial period [5] | b* value, 14-day after [5] | b* value, difference [5] | also measured |
| --- | --- | --- | --- | --- | --- | --- | --- | --- | --- | --- |
| CCCCN(CCCC)c1ccc([N+](=C2C=CC(=[N+](c3ccc(N(CCCC)CCCC)cc3)c3ccc(N(CCCC)CCCC)cc3)C=C2)c2ccc(N(CCCC)CCCC)cc2)cc1 [Compound No. 1] | 1.8 | 5.3 | 3.5 | 1,102 nm | 108,000 | around 280 °C | 3.5 | 5.3 | 1.8 | – |
| CCCCN(CCCC)c1ccc([N+](=C2C=CC(=[N+](c3ccc(N(CCCC)CCCC)cc3)c3ccc(N(CCCC)CCCC)cc3)C=C2)c2ccc(N(CCCC)CCCC)cc2)cc1.[F][Sb-]([F])([F])([F])([F])[F].[F][Sb-]([F])([F])([F])([F])[F] [Compound No. 153, hexafluoroantimonate of N,N,N′,N′-tetrakis[p-di(n-butyl)aminophenyl]phenylenediimmonium, reference compound] | – | – | – | – | – | – | 2.5 | 4.4 | 1.9 | remaining ratio of cyanine dye (%), initial period ([6]; OM-57 dye film with compound added, before irradiation): 100%; remaining ratio of cyanine dye (%), 100-hour after [6, 9]: 27%; remaining ratio of cyanine dye (%), 150-hour after [6, 10]: 0%; remaining ratio of diimmonium compound (%), 100-hour after [7, 9]: 81%; remaining ratio of diimmonium compound (%), 150-hour after [7, 10]: 76%; remaining ratio of diimmonium compound (%), initial period ([7]; thin film on polycarbonate, before irradiation): 100%; solubility in MEK [8]: 4.5%; solubility in toluene [8]: insoluble |
| CCCCN(CCCC)c1ccc([N+](=C2C=CC(=[N+](c3ccc(N(CCCC)CCCC)cc3)c3ccc(N(CCCC)CCCC)cc3)C=C2)c2ccc(N(CCCC)CCCC)cc2)cc1.O=S(=O)([O-])c1cccc2c(S(=O)(=O)[O-])cccc12 [Compound No. 151, 1,5-naphthalenedisulfonic acid salt of N,N,N′,N′-tetrakis[p-di(n-butyl)aminophenyl]phenylenediimmonium, reference compound] | – | – | – | – | 82,000 | – | – | – | – | – |
| CCCCN(CCCC)c1ccc([N+](=C2C=CC(=[N+](c3ccc(N(CCCC)CCCC)cc3)c3ccc(N(CCCC)CCCC)cc3)C=C2)c2ccc(N(CCCC)CCCC)cc2)cc1.F[B-](F)(F)F.F[B-](F)(F)F [Compound No. 156, borofluoride salt of N,N,N′,N′-tetrakis[p-di(n-butyl)aminophenyl]phenylene diimmonium, reference compound] | 10.8 | 14.3 | 3.5 | – | – | – | – | – | – | – |
| CC(C)CN(CC(C)C)c1ccc([N+](=C2C=CC(=[N+](c3ccc(N(CC(C)C)CC(C)C)cc3)c3ccc(N(CC(C)C)CC(C)C)cc3)C=C2)c2ccc(N(CC(C)C)CC(C)C)cc2)cc1 [Compound No. 2] | 1.9 | 4.1 | 2.2 | 1,104 nm | 109,000 | around 282 °C | 2.2 | 3.7 | 1.5 | – |
| CCCCN(CCCC)c1ccc([N+](=C2C=CC(=[N+](c3ccc(N(CCCC)CCCC)cc3)c3ccc(N(CCCC)CCCC)cc3)C=C2)c2ccc(N(CCCC)CCCC)cc2)cc1.F[P-](F)(F)(F)(F)F.F[P-](F)(F)(F)(F)F [Compound No. 155, hexafluorophosphate of N,N,N′,N′-tetrakis[p-di(n-butyl)aminophenyl]-p-phenylenediimmonium, reference compound] | 6.1 | 9.0 | 2.9 | – | – | – | – | – | – | – |
| N#CCCCN(CCCC#N)c1ccc([N+](=C2C=CC(=[N+](c3ccc(N(CCCC#N)CCCC#N)cc3)c3ccc(N(CCCC#N)CCCC#N)cc3)C=C2)c2ccc(N(CCCC#N)CCCC#N)cc2)cc1.[F][Sb-]([F])([F])([F])([F])[F].[F][Sb-]([F])([F])([F])([F])[F] [Compound No. 154, hexafluoroantimonate of N,N,N′,N′-tetrakis[p-di(3-cyanopropyl)aminophenyl]phenylene diimmonium, reference compound] | – | – | – | – | – | – | – | – | – | solubility in MEK [8]: insoluble; solubility in toluene [8]: insoluble |
| CCCCN(CCCC#N)c1ccc([N+](=C2C=CC(=[N+](c3ccc(N(CCCC)CCCC#N)cc3)c3ccc(N(CCCC)CCCC#N)cc3)C=C2)c2ccc(N(CCCC)CCCC#N)cc2)cc1.O=S(=O)([N-]S(=O)(=O)C(F)(F)F)C(F)(F)F.O=S(=O)([N-]S(=O)(=O)C(F)(F)F)C(F)(F)F [Compound No. 35] | – | – | – | 1,090 nm | – | around 256 °C | – | – | – | – |
| CCN(CC)c1ccc([N+](=C2C=CC(=[N+](c3ccc(N(CC)CC)cc3)c3ccc(N(CC)CC)cc3)C=C2)c2ccc(N(CC)CC)cc2)cc1.O=S(=O)([N-]S(=O)(=O)C(F)(F)F)C(F)(F)F.O=S(=O)([N-]S(=O)(=O)C(F)(F)F)C(F)(F)F [Compound No. 12] | – | – | – | 1,084 nm | 96,000 | around 278 °C | – | – | – | – |
| CCCCN(CCCC)c1ccc([N+](=C2C=CC(=[N+](c3ccc(N(CCCC)CCCC)cc3)c3ccc(N(CCCC)CCCC)cc3)C=C2)c2ccc(N(CCCC)CCCC)cc2)cc1.O=S(=O)([O-])c1ccc2c(S(=O)(=O)[O-])cccc2c1O [Compound No. 152, 1-hydroxy-2,5-naphthalenedisulfonic acid salt of N,N,N′,N′-tetrakis[p-di(n-butyl)aminophenyl]phenylenediimmonium, reference compound] | – | – | – | – | 24,500 | – | – | – | – | – |
| CC(C)CCN(CCC(C)C)c1ccc([N+](=C2C=CC(=[N+](c3ccc(N(CCC(C)C)CCC(C)C)cc3)c3ccc(N(CCC(C)C)CCC(C)C)cc3)C=C2)c2ccc(N(CCC(C)C)CCC(C)C)cc2)cc1.O=S(=O)([N-]S(=O)(=O)C(F)(F)F)C(F)(F)F.O=S(=O)([N-]S(=O)(=O)C(F)(F)F)C(F)(F)F [Compound No. 4] | 2.1 | 4.3 | 2.2 | 1,102 nm | 110,000 | around 280 °C | 2.4 | 3.8 | 1.6 | solubility in MEK [8]: 10%; solubility in toluene [8]: 0.1% |
| N#CCCCCN(CCCCC#N)c1ccc([N+](=C2C=CC(=[N+](c3ccc(N(CCCCC#N)CCCCC#N)cc3)c3ccc(N(CCCCC#N)CCCCC#N)cc3)C=C2)c2ccc(N(CCCCC#N)CCCCC#N)cc2)cc1.O=S(=O)([N-]S(=O)(=O)C(F)(F)F)C(F)(F)F.O=S(=O)([N-]S(=O)(=O)C(F)(F)F)C(F)(F)F [Compound No. 9] | 1.9 | 4.3 | 2.4 | 1,086 nm | 109,000 | around 277 °C | – | – | – | – |
